Source: ChEMBL document CHEMBL4665674, “Medicinal Chemistry Strategies for the Development of Kinase Inhibitors Targeting Point Mutations” (J Med Chem, 2020)

Legend:
[1] = biological target: T1, Protein cereblon/Tyrosine-protein kinase BTK (Homo sapiens, UniProt Q06187+Q96SW2, C481S); assay: Induction of CRBN-mediated degradation of BTK C481S mutant (unknown origin) expressed in B cells derived from X-linked agammaglobulinemia patient by immunoblot analysis; assay type: cell-based; details: b-cell
T1 sequence (Q06187 2-659 C481S limits assumed, stated change not applied): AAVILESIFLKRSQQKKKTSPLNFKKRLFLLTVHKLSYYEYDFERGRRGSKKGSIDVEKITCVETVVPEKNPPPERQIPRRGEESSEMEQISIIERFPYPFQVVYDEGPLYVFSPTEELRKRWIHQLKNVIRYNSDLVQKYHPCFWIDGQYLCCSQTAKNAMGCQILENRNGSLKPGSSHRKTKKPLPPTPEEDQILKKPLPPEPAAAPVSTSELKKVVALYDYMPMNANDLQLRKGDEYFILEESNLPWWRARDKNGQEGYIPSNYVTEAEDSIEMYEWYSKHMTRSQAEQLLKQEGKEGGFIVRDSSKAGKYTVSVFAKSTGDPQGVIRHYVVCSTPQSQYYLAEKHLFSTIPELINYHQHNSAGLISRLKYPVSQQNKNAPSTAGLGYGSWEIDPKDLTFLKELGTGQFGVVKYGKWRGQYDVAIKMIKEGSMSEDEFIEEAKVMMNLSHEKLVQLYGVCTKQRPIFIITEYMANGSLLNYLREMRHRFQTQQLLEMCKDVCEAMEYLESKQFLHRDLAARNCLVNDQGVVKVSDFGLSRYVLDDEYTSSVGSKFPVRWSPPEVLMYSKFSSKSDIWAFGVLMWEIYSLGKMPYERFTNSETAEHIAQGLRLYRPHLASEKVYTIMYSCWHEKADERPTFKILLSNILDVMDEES
T1 sequence (Q96SW2 whole entry, stated change not applied): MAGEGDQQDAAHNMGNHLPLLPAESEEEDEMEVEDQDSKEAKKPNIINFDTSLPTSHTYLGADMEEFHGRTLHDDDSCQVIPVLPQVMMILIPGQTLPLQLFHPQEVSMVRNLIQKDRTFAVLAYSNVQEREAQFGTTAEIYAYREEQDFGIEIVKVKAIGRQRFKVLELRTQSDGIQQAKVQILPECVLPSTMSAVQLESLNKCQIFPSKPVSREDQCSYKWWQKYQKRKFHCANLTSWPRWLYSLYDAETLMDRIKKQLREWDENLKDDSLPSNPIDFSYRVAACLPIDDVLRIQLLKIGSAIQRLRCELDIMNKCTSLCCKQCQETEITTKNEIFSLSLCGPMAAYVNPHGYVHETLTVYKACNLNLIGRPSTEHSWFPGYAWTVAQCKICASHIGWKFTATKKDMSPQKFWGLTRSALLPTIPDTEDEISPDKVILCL

[2] = biological target: T2, Protein cereblon/Tyrosine-protein kinase BTK (Homo sapiens, UniProt Q06187+Q96SW2); assay: Induction of CRBN-mediated degradation of wild type BTK (unknown origin) expressed in B cells derived from X-linked agammaglobulinemia patient by immunoblot analysis; assay type: cell-based; details: b-cell
T2 sequence (Q06187 whole entry): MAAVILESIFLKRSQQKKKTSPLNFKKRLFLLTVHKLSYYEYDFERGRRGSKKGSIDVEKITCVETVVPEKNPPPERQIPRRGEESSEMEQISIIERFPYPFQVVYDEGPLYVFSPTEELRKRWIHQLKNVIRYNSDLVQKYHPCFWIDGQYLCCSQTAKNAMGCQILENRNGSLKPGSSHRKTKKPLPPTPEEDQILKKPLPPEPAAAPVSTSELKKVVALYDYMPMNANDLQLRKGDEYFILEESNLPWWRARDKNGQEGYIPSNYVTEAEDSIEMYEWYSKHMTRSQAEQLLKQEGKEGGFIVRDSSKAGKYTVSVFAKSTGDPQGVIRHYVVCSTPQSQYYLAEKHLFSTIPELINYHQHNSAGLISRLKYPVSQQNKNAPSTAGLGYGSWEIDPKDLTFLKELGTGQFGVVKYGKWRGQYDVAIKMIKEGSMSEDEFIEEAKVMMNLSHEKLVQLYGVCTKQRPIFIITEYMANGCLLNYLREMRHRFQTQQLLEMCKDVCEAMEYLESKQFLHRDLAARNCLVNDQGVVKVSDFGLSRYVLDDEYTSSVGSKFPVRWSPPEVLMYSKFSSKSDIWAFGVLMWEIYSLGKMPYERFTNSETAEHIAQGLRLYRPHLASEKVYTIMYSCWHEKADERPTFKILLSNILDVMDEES
T2 sequence (Q96SW2 whole entry): as the sequence (Q96SW2 whole entry, stated change not applied) above

[3] = Antiproliferative activity against human MGH021-4 cells harboring ALK G1269A mutant after 72 hrs by CellTiter-Glo assay; assay type: functional; details: MGH0214
[4] = Antiproliferative activity against human NCI-H3122-CR1 cells harboring ALK L1196M mutant after 72 hrs by CellTiter-Glo assay; assay type: functional
cells = details: Homo sapiens, HN11, 72 h
[5] = Induction of CRBN-mediated degradation of human BTK C481A mutant expressed in human HeLa cells incubated for 4 days by Western blot analysis; assay type: cell-based; details: 96 h
[6] = Induction of CRBN-mediated degradation of human BTK C481W mutant expressed in human HeLa cells incubated for 4 days by Western blot analysis; assay type: cell-based; details: 96 h
[7] = Induction of CRBN-mediated degradation of human BTK C481G mutant expressed in human HeLa cells incubated for 4 days by Western blot analysis; assay type: cell-based; details: 96 h
[8] = Induction of CRBN-mediated degradation of human BTK C481T mutant expressed in human HeLa cells incubated for 4 days by Western blot analysis; assay type: cell-based; details: 96 h
[9] = biological target: T1, Protein cereblon/Tyrosine-protein kinase BTK; assay: Induction of CRBN-mediated degradation of human BTK C481S mutant expressed in human HeLa cells incubated for 4 days by Western blot analysis; assay type: cell-based
[10] = biological target: T2, Protein cereblon/Tyrosine-protein kinase BTK; assay: Induction of CRBN-mediated degradation of wild type human BTK expressed in human HeLa cells incubated for 4 days by Western blot analysis; assay type: cell-based
[11] = biological target: T3, Tyrosine-protein kinase BTK (Homo sapiens, UniProt Q06187); assay: Inhibition of wild type BTK (unknown origin)
T3 sequence (Q06187 whole entry): as the sequence (Q06187 whole entry) above

[12] = biological target: T3, Tyrosine-protein kinase BTK; assay: Inhibition of BTK (unknown origin)
LoVo = assay: cells; assay type: functional, cell-based; details: Homo sapiens
NCI-H1975 = assay: cells; details: Homo sapiens
[13] = Inhibition of CD74-ROS1 G2032R mutant (unknown origin) expressed in mouse Ba/F3 cells assessed as antiproliferative activity incubated for 72 hrs by CellTiter-Glo luciferase-based ATP detection assay; assay type: cell-based; details: BaF3, 72 h
[14] = Inhibition of LMNA-TRKA G595R (unknown origin) expressed in mouse Ba/F3 cells assessed as antiproliferative activity incubated for 72 hrs by CellTiter-Glo luciferase-based ATP detection assay; assay type: cell-based; details: BaF3, 72 h

SMILES: Nc1ncnc2c1c(-c1ccc(Oc3ccccc3)cc1)nn2[C@@H]1CCCN(CCOCCOCC(=O)Nc2ccc3c(c2)CN(C2CCC(=O)NC2=O)C3=O)C1 (some centres undefined)
- DC50 [1]: 14.9 nM
- DC50 [2]: 14.6 nM

SMILES: Cc1cc(Nc2ncc(Cl)c(Nc3ccccc3S(=O)(=O)C(C)C)n2)c(OC(C)C)cc1C1CCNCC1 [CERITINIB]
- GI50 [3]: 80 nM
- GI50 [4]: 230 nM

SMILES: C=CC(=O)Nc1cccc(Oc2nc(Nc3ccc(N4CCN(C)CC4)cc3OC)ncc2Cl)c1
- IC50 (cells): 2130 nM

SMILES: Nc1ncnc2c1c(-c1ccc(Oc3ccccc3)cc1)nn2[C@@H]1CCCN(C(=O)c2cn(CCOCCOCCOCCCc3ccc4c(c3)CN(C3CCC(=O)NC3=O)C4=O)nn2)C1 (some centres undefined)
- DC50 [5]: 18 nM
- DC50 [6]: 18 nM
- DC50 [7]: 18 nM
- DC50 [8]: 18 nM
- DC50 [9]: 18 nM
- DC50 [10]: 18 nM

SMILES: NC(=O)[C@H]1CCN(c2ncnc(N)c2F)C[C@@H]1N1CCC[C@@H](Nc2cc(Cl)cc(C(F)(F)F)c2)C1=O [VECABRUTINIB]
- IC50 [11]: 2.9 nM

SMILES: Cc1c(NC(=O)c2ccc(C(C)(C)C)cc2)cccc1-c1cn(C)c(=O)c(Nc2ccc(C(=O)N3CCN(CCCCCCNC(=O)CNc4cccc5c4C(=O)N(C4CCC(=O)NC4=O)C5=O)CC3)cc2)n1 (centres undefined)
- IC50 [12]: 5.1 nM

SMILES: C[C@@H](Oc1cc(-c2cnn(C3CCNCC3)c2)cnc1N)c1c(Cl)ccc(F)c1Cl [CRIZOTINIB]
- GI50 [3]: 500 nM
- GI50 [4]: 2880 nM

SMILES: CN(C)C/C=C/C(=O)Nc1cc2c(Nc3ccc(F)c(Cl)c3)ncnc2cc1O[C@H]1CCOC1 [AFATINIB]
- IC50 (LoVo): 15 nM
- IC50 (NCI-H1975): 22 nM

SMILES: C[C@H]1CNC(=O)c2cnn3ccc(nc23)N[C@H](C)c2cc(F)ccc2O1 [REPOTRECTINIB]
- IC50 [13]: 3.3 nM
- IC50 [14]: 0.4 nM
